Read-outs that look alike come from different tables or passages of the source.
Assays:
[1] = test system: AHR-regulated gene CYP1A1; assay: In vitro assay 3: AHR-regulated CYP1A1 expression in human cell line (U937, qPCR)
AHR [2] = molecular target: T1, AHR (Homo sapiens, UniProt P35869); assay: In vitro assay 2: agonism in human cell line (transactivation assay)
T1 sequence (P35869 11-848): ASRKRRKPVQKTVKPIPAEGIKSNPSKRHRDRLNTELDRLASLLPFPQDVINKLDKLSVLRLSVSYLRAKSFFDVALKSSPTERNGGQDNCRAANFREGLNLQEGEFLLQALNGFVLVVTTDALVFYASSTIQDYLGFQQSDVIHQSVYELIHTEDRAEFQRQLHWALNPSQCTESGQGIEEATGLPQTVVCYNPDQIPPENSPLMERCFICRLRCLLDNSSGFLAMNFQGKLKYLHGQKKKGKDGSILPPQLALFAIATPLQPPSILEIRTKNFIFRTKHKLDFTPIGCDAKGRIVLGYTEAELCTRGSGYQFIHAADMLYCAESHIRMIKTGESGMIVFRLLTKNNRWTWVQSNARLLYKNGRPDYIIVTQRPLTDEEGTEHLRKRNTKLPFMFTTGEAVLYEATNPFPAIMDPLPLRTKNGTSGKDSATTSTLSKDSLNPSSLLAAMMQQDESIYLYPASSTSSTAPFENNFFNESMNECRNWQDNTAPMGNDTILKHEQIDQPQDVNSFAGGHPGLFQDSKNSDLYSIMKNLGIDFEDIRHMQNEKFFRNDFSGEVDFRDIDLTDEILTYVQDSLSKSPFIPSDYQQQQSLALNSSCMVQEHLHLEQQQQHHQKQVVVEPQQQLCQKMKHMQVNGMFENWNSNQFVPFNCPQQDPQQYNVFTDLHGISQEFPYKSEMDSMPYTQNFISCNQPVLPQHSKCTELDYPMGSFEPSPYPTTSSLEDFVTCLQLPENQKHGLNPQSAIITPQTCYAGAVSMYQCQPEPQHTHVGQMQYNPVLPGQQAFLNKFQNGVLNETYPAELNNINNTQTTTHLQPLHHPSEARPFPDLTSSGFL

AHR [3] = molecular target: T1, AHR; assay: In vitro assay 1: antagonism in human cell line (transactivation assay, kynurenic acid prestimulated); conditions: Assay 1: AHR-luc Hum Antagonism IC50 [M], 150 μM kynurenic acid, 20 hours, firefly luciferase
[4] = Homo sapiens, U-937, 6 h, read-out: Assay 3: Hum CYP1A1 Antagonism IC50 [M], U937 cells, 200 μM KA, 6 hours, qPCR
[5] = Assay 2: AHR-luc Hum Agonism IC50 [M], no kynurenic acid, 20 hours, firefly luciferase
[6] = read-out: Assay 3: Hum CYP1A1 Antagonism IC50, U937 cells, 200 μM KA, 6 hours, qPCR
[7] = read-out: Assay 2: AHR-luc Hum Agonism IC50, no kynurenic acid, 20 hours, firefly luciferase

Row | IC50 [1, 4] [M] | IC50 (AHR [2]; [5]) [M] | IC50 (AHR [3]) [M] | IC50 [1, 6] [M] | IC50 (AHR [2]; [7]) [M] | SMILES
1 | 1.18e-08 | > 2e-05 | 1.02e-08 | – | – | O=C(NCC(O)C(F)(F)F)c1cc(-c2ccc(Cl)cc2)nn(-c2cc(F)cc(F)c2)c1=O (single isomer, unassigned) [Example 45, 6-(4-Chlorophenyl)-2-(3,5-difluorophenyl)-3-oxo-N-(3,3,3-trifluoro-2-hydroxypropyl)-2,3-dihydropyridazine-4-carboxamide]
2 | 1.05e-08 | > 2e-05 | 2.9e-08 | – | – | O=C(NC(CO)C1CC1)c1cc(-c2ccc(C(F)(F)F)cc2)nn(-c2cccc(F)c2)c1=O (racemic) [Example 267, N-[(1RS)-1-Cyclopropyl-2-hydroxyethyl]-2-(3-fluorophenyl)-3-oxo-6-[4-(trifluoromethyl)phenyl]-2,3-dihydropyridazine-4-carboxamide]
3 | 8.18e-08 | > 2e-05 | 4.67e-08 | – | – | O=C(N[C@H]1C[C@@H](O)C1)c1cc(-c2ccc(Cl)cc2)nn(-c2cccc(F)c2)c1=O [Example 324, 6-(4-chlorophenyl)-2-(3-fluorophenyl)-N-(cis-3-hydroxycyclobutyl)-3-oxo-2,3-dihydropyridazine-4-carboxamide]
4 | 1.36e-07 | > 2e-05 | 9.73e-08 | – | – | C[C@H](O)CCNC(=O)c1cc(-c2ccc(C(F)(F)F)cc2)nn(-c2cccc(F)c2)c1=O [Example 248, 2-(3-Fluorophenyl)-N-[(3S)-3-hydroxybutyl]-3-oxo-6-[4-(trifluoromethyl)phenyl]-2,3-dihydropyridazine-4-carboxamide]
5 | – | > 2e-05 | 1.84e-08 | 3.52e-08 | – | O=C(NCC(O)C(F)(F)F)c1cc(-c2ccc(Cl)cc2)nn(-c2cccc(F)c2)c1=O (single isomer, unassigned) [Example 26, 6-(4-Chlorophenyl)-2-(3-fluorophenyl)-3-oxo-N-(3,3,3-trifluoro-2-hydroxypropyl)-2,3-dihydropyridazine-4-carboxamide]
6 | 4.6e-08 | > 2e-05 | 2.7e-08 | – | – | N#C[C@@H](CO)NC(=O)c1cc(-c2ccc(Cl)cc2)nn(-c2cccc(F)c2)c1=O [Example 393, 6-(4-chlorophenyl)-N-[(1S)-1-cyano-2-hydroxyethyl]-2-(3-fluorophenyl)-3-oxo-2,3-dihydropyridazine-4-carboxamide]
7 | – | > 2e-05 | 4.05e-08 | 6.08e-08 | – | COc1ccc(-c2cc(C(=O)NCC(O)C(F)(F)F)c(=O)n(-c3cccc(F)c3)n2)cc1 (single isomer, unassigned) [Example 127, 2-(3-Fluorophenyl)-6-(4-methoxyphenyl)-3-oxo-N-(3,3,3-trifluoro-2-hydroxypropyl)-2,3-dihydropyridazine-4-carboxamide]
8 | 4.92e-08 | > 2e-05 | 3.59e-08 | – | – | O=C(NCC1(O)CCC1)c1cc(-c2ccc(Cl)cc2)nn(-c2cccc(F)c2)c1=O [Example 212, 6-(4-Chlorophenyl)-2-(3-fluorophenyl)-N-[(1-hydroxycyclobutyl)methyl]-3-oxo-2,3-dihydropyridazine-4-carboxamide]
9 | 5.73e-08 | > 2e-05 | 3.05e-08 | – | – | CC(C)[C@@H](CO)NC(=O)c1cc(-c2ccc(N(C)C)c(Cl)c2)nn(-c2cccc(F)c2)c1=O [Example 375, 6-[3-chloro-4-(dimethylamino)phenyl]-2-(3-fluorophenyl)-N-[(2S)-1-hydroxy-3-methylbutan-2-yl]-3-oxo-2,3-dihydropyridazine-4-carboxamide]
10 | 2.03e-07 | > 2e-05 | 1.63e-07 | – | – | O=C(N[C@H]1COC[C@@H]1O)c1cc(-c2ccc(Cl)cc2)nn(-c2cccc(F)c2)c1=O [Example 167, 6-(4-Chlorophenyl)-2-(3-fluorophenyl)-N-[(3S,4R)-4-hydroxytetrahydrofuran-3-yl]-3-oxo-2,3-dihydropyridazine-4-carboxamide]
11 | – | – | 1.09e-07 | 3.89e-07 | > 2e-05 | CC(CCO)NC(=O)c1cc(-c2ccc(C(F)(F)F)cc2)nn(-c2cccc(F)c2)c1=O (single isomer, unassigned; (-)) [Example 255, (−)-2-(3-Fluorophenyl)-N-(4-hydroxybutan-2-yl)-3-oxo-6-[4-(trifluoromethyl)phenyl]-2,3-dihydropyridazine-4-carboxamide]
12 | – | > 2e-05 | 5.84e-09 | 1.85e-08 | – | O=C(N[C@@H]1COC[C@@H]1O)c1cc(-c2ccc(C(F)(F)F)cc2)nn(-c2cccc(F)c2)c1=O (single isomer, unassigned) [Example 344, (+)-2-(3-fluorophenyl)-N-(cis-4-hydroxytetrahydrofuran-3-yl)-3-oxo-6-[4-(trifluoromethyl)phenyl]-2,3-dihydropyridazine-4-carboxamide]
13 | 1.64e-08 | > 2e-05 | 1.57e-08 | – | – | O=C(N[C@@H]1CCCC[C@@H]1O)c1cc(-c2ccc(Cl)cc2)nn(-c2cccc(F)c2)c1=O (single isomer, unassigned) [Example 104, 6-(4-Chlorophenyl)-2-(3-fluorophenyl)-N-(cis-2-hydroxycyclohexyl)-3-oxo-2,3-dihydropyridazine-4-carboxamide]
14 | 1.08e-08 | > 2e-05 | 4.89e-09 | – | – | CC(C)[C@@H](CO)NC(=O)c1cc(-c2ccc(Cl)cc2)nn(-c2cc(F)cc(F)c2)c1=O [Example 43, 6-(4-Chlorophenyl)-2-(3,5-difluorophenyl)-N-[(2S)-1-hydroxy-3-methylbutan-2-yl]-3-oxo-2,3-dihydropyridazine-4-carboxamide]
15 | – | – | 2.92e-08 | 4.03e-08 | > 2e-05 | O=C(NCC(O)C(F)(F)F)c1cc(-c2ccc(C(F)F)cc2)nn(-c2cccc(F)c2)c1=O (single isomer, unassigned) [Example 96, 6-[4-(Difluoromethyl)phenyl]-2-(3-fluorophenyl)-3-oxo-N-(3,3,3-trifluoro-2-hydroxypropyl)-2,3-dihydropyridazine-4-carboxamide]
16 | 5.9e-08 | > 2e-05 | 3.41e-08 | – | – | O=C(NCC(O)C(F)(F)F)c1cc(-c2ccc(OC(F)(F)F)cc2)nn(-c2cccc(F)c2)c1=O (stereo not drawn) [Example 182, 2-(3-Fluorophenyl)-3-oxo-N-(3,3,3-trifluoro-2-hydroxypropyl)-6-[4-(trifluoromethoxy)phenyl]-2,3-dihydropyridazine-4-carboxamide]
17 | – | – | 4.22e-08 | 4.37e-08 | > 2e-05 | COc1ccc(-c2cc(C(=O)NC(CO)C(F)(F)F)c(=O)n(-c3cccc(F)c3)n2)cc1 (single isomer, unassigned) [Example 102, 2-(3-Fluorophenyl)-6-(4-methoxyphenyl)-3-oxo-N-(1,1,1-trifluoro-3-hydroxypropan-2-yl)-2,3-dihydropyridazine-4-carboxamide]
18 | 2.83e-08 | > 2e-05 | 1.44e-08 | – | – | CC(C)(O)CNC(=O)c1cc(-c2ccc(C(F)(F)F)cc2)nn(-c2cccc(F)c2)c1=O [Example 256, 2-(3-Fluorophenyl)-N-(2-hydroxy-2-methylpropyl)-3-oxo-6-[4-(trifluoromethyl)phenyl]-2,3-dihydropyridazine-4-carboxamide]
19 | 2.23e-08 | – | 1.66e-08 | – | > 2e-05 | O=C(NC(CO)C1CCC1)c1cc(-c2ccc(Cl)cc2)nn(-c2cccc(F)c2)c1=O (single isomer, unassigned; (-)) [Example 211, (−)-6-(4-Chlorophenyl)-N-(1-cyclobutyl-2-hydroxyethyl)-2-(3-fluorophenyl)-3-oxo-2,3-dihydropyridazine-4-carboxamide]
20 | 1.34e-07 | > 2e-05 | 6.37e-08 | – | – | COC[C@H](CO)NC(=O)c1cc(-c2ccc(C(F)(F)F)cc2)nn(-c2cccc(F)c2)c1=O [Example 257, (+)-2-(3-Fluorophenyl)-N-[(2S)-1-hydroxy-3-methoxypropan-2-yl]-3-oxo-6-[4-(trifluoromethyl)phenyl]-2,3-dihydropyridazine-4-carboxamide]
21 | 6.3e-08 | > 0.0001 | 2.8e-08 | – | – | C[C@H](NC(=O)c1cc(-c2ccc(OC(F)(F)F)cc2)nn(-c2cccc(F)c2)c1=O)C(C)(C)O [Example 380, 2-(3-fluorophenyl)-N-[(2S)-3-hydroxy-3-methylbutan-2-yl]-3-oxo-6-[4-(trifluoromethoxy)phenyl]-2,3-dihydropyridazine-4-carboxamide]

Source: patent publication US11040035B2, “3-oxo-2,6-diphenyl-2,3-dihydropyridazine-4-carboxamides” (BAYER PHARMA AKTIENGESELLSCHAFT, priority 2016, dated 2021)
